# Marks after values point to notes of the source that are not given here.
# Legend:
# CCRF-CEM cells = test: Intracellular triphosphate in CCRF-CEM cells; format: cell-based, human
# Protocol: CCRF-CEM cells were incubated with methyl-F-araC, araC, and gemcitabine, and the amount of intracellular triphosphate (TP) of each compound was determined.
# CCRF-CEM cell extracts were collected by centrifugation and resuspended in ice-cold 0.5 M perchloric acid. The samples were centrifuged at 12,000×g, and the supernatant fluid was neutralized and buffered by adding 4 M KOH and 1 M potassium phosphate, pH 7.4. KClO4 was removed by centrifugation, and a portion of the supernatant fluid was injected onto a strong anion exchange HPLC (Bio Basic anion exchange column, Thermo Electron Corp., Bellefonte, Pa.). Nucleotides were eluted with a 30-min linear salt and pH gradient from 6 mM ammonium phosphate (pH 2.8) to 900 mM ammonium phosphate (pH 6). Peaks were detected as they eluted from the column by their absorbance at 254 nm.
# CCRF-CEM leukemia = test: In vitro cytotoxicity (MTS, 72 h), CCRF-CEM; format: cell-based, human; details: for IC50: Homo sapiens, CCRF-CEM, 72 hours of incubation
# Protocol: (§1) The concentration of compound required to inhibit cell growth by 50% (IC50) after 72 hours of incubation was determined for each unprotected analog with eight human tumor cell lines (SNB-7 CNS, DLD-1 colon, CCRF-CEM leukemia, NCI-H23 NSCL, ZR-75-1 breast, LOX melanoma, PC-3 prostate, and CAKI-1 renal). […] The α-anomers of these compounds were also screened but were not found to be cytotoxic (data not shown).
# (§2) CCRF-CEM cells are a T-cell leukemia cell line that is known to be very sensitive to nucleoside analogs.
# (§3) All cell lines were grown in RPMI 1640 medium containing 10% fetal bovine serum, sodium bicarbonate, and 2 mM L-glutamine. For in vitro evaluation of the sensitivity of these cell lines to compounds, cells were plated in 96-well microtiter plates and then were exposed continuously to various concentrations of the compounds for 72 h at 37° C. Cell viability was measured using the MTS assay [3-(4,5-dimethylthiazol-2-yl)-5-(3-carboxymethoxyphenyl)-2-(4-sulfophenyl)-2H-tetrazolium, inner salt; MTS and an electron coupling reagent (phenazine ethosulfate; PES)]. Absorbance was read at 490 nm. The background absorbance mean was subtracted from the data followed by conversion to percent of control. The drug concentrations producing survival just above and below 50% level were used in a linear regression analysis to calculate the IC50.
# [1] = system: cells that lacked dCyd kinase; test: Cytotoxicity in cells that lacked dCyd kinase; format: cell-based
# Excerpt: as §2
# SNB-7 CNS = test: In vitro cytotoxicity (MTS, 72 h), SNB-7; format: cell-based; details: Homo sapiens; SNB-7, 72 hours of incubation
# Protocol: as §1, §3
# DLD-1 colon = test: In vitro cytotoxicity (MTS, 72 h), DLD-1; format: cell-based; details: Homo sapiens; DLD-1, 72 hours of incubation
# Protocol: as §1, §3
# NCI-H23 NSCL [2] = test: In vitro cytotoxicity (MTS, 72 h), NCI-H23; format: cell-based; details: Homo sapiens; NCI-H23, 72 hours of incubation
# Protocol: as §1, §3
# ZR-75-1 breast = test: In vitro cytotoxicity (MTS, 72 h), ZR-75-1; format: cell-based; details: Homo sapiens; ZR-75-1, 72 hours of incubation
# Protocol: as §1, §3
# LOX melanoma [3] = test: In vitro cytotoxicity (MTS, 72 h), LOX; format: cell-based; details: Homo sapiens, 72 hours of incubation
# Protocol: as §1, §3
# PC-3 prostate = test: In vitro cytotoxicity (MTS, 72 h), PC-3; format: cell-based; details: Homo sapiens; PC-3, 72 hours of incubation
# Protocol: as §1, §3
# CAKI-1 renal [4] = test: In vitro cytotoxicity (MTS, 72 h), CAKI-1; format: cell-based; details: Homo sapiens; CAKI-1, 72 hours of incubation
# Protocol: as §1, §3
# [5] = system: eight human tumor cell lines; test: In vitro cytotoxicity, panel of eight human tumor cell lines; format: cell-based
# Protocol: as §1, §3
# Maximally tolerated dose = format: in vivo, mice; details: once per day for 9 consecutive days
# Protocol: (§4) Because of its potent in vitro activity, methyl-F-araC (13) was evaluated for in vivo activity against three solid tumor xenografts (CAKI-1 renal, NCI-H23 NSCL, and LOX melanoma). Prior to these studies the maximally tolerated dose of methyl-F-araC was determined to be 3 mg/kg given once per day for 9 consecutive days. […] Female NCr-nu athymic mice were implanted subcutaneously with CAKI-1 tumor fragments. When tumors were approximately 100-250 mg, mice were treated ip with methyl-F-araC at 1, 2, or 3 mg/kg/dose (1 treatment each day for 9 consecutive days starting on day 14). Each treatment group contained 6 mice. The tumors were measured with calipers twice each week, and the weight (mg) was calculated. In this experiment there were 3 of 6 tumor-free survivors at the end of the experiment (62 days post implant) in each treatment group. Good results were also seen against NCI-H23 and LOX human tumor xenografts (Table 2).
# CAKI-1 renal [6] = test: CAKI-1 renal tumor xenograft, sc, in nude mice; format: in vivo, female NCr-nu athymic mice
# Protocol: as §4
# (§5) Xenografts were implanted sc on the flanks of female nude mice. When tumors were approximately 100-250 mg, they were treated ip with 3 or 4 mg/kg/dose of methyl-F-araC (q1d×9) and tumor size was measured twice weekly thereafter. Tumor-free survivors are the number of mice that were tumor-free at the end of the experiment/total number of mice in the treatment group. ^aThe difference in the median of times poststaging for tumors of the treated (T) and control (C) groups to double in mass three times. ^bThe difference in the median of times poststaging for tumors of the treated (T) and control (C) groups to double in mass two times. ^cThe difference in the median of times poststaging for tumors of the treated (T) and control (C) groups to double in mass four times.
# Mice, obtained from various commercial suppliers, were housed in microisolator cages and were allowed commercial mouse food and water ad libitum. The three human tumors were obtained from the Developmental Therapeutics Program Tumor Repository (Frederick, Md.) and were maintained in in vivo passage. Only tumor lines that tested negative for selected viruses were used. For the in vivo evaluation of the sensitivity of human tumors to the compounds, female NCr-nu athymic mice were implanted subcutaneously (sc) with 30-40 mg tumor fragments. In each experiment, methyl-F-araC (13) was tested at three dosage levels. […]
# (§6) Antitumor activity was assessed on the basis of delay in tumor growth (T-C). […] Tumors were measured in two dimensions (length and width) twice weekly, and the tumor weight was calculated using the formula (length×width^2)/2 and assuming unit density. […]
# NCI-H23 NSCL [7] = test: NCI-H23 NSCL tumor xenograft, sc, in nude mice; format: in vivo, female NCr-nu athymic mice
# Protocol: as §4, §5
# (§7) Mice, obtained from various commercial suppliers, were housed in microisolator cages and were allowed commercial mouse food and water ad libitum. […]
# as §6
# LOX melanoma [8] = test: LOX melanoma tumor xenograft, sc, in nude mice; format: in vivo, female NCr-nu athymic mice
# Protocol: as §4, §5, §7, §6
# [9] = 3 mg/kg/dose ip q1d×9, tumor-free/total at end of experiment
smiles,measurement,setting,value
Nc1ccn([C@@H]2O[C@H](CO)[C@@H](O)C2(F)F)c(=O)n1 [gemcitabine],intracellular concentration of triphosphate,"CCRF-CEM cells; human, 2 h, 100 nM",17±3 pmoles/10^6 cells
"C[C@]1(CO)O[C@@H](n2cnc3c(=O)[nH]c(N)nc32)[C@@H](F)[C@@H]1O [Compound 22, 9-(2-Deoxy-2-fluoro-4-C-methyl-β-D-arabinofuranosyl)guanine]",IC50,CCRF-CEM leukemia,~500 nM
"C[C@]1(CO)O[C@@H](n2cnc3c(N)nc(Cl)nc32)[C@@H](F)[C@@H]1O [Compound 24, 2-Chloro-9-(2-deoxy-2-fluoro-4-C-methyl-β-D-arabinofuranosyl)adenine]",IC50,CCRF-CEM leukemia,~500 nM
same,inhibition of CCRF-CEM cell growth with dCyd added to the culture medium,CCRF-CEM leukemia,prevented
same,activity in cells that lacked dCyd kinase,[1],neither compound was active
"C[C@]1(CO)O[C@@H](n2ccc(N)nc2=O)[C@@H](F)[C@@H]1O [methyl-F-araC, 1-(2-Deoxy-2-fluoro-4-C-methyl-β-D-arabinofuranosyl)cytosine]",IC50,SNB-7 CNS,> 200000 nM
same,IC50,DLD-1 colon,> 200000 nM
same,IC50,CCRF-CEM leukemia,12 ± 3 nM
same,inhibition of CCRF-CEM cell growth with dCyd added to the culture medium,CCRF-CEM leukemia,prevented
same,IC50,NCI-H23 NSCL [2],190 ± 10 nM
same,IC50,ZR-75-1 breast,> 200000 nM
same,IC50,LOX melanoma [3],240 ± 150 nM
same,IC50,PC-3 prostate,> 200000 nM
same,IC50,CAKI-1 renal [4],540 ± 580 nM
same,cytotoxicity (in words),[5],significant cytotoxicity against four of the cell lines
same,activity in cells that lacked dCyd kinase,[1],neither compound was active
same,intracellular concentration of triphosphate,"CCRF-CEM cells; human, 2 h, 100 nM",16±2 pmoles/10^6 cells
same,maximally tolerated dose,Maximally tolerated dose,3 mg/kg
same,T-C (days),"CAKI-1 renal [6]; 3 mg/kg/dose ip q1d×9, time to double in mass three times",>34.6^a days
same,Tumor-free survivors,CAKI-1 renal [6]; [9],3/6
same,tumor-free survivors in each treatment group,"CAKI-1 renal [6]; 1, 2, or 3 mg/kg/dose ip, 9 days from day 14, 62 days post implant",3 of 6
same,in vivo activity (in words),"CAKI-1 renal [6]; CAKI-1 tumors, FIG. 1",excellent activity
same,T-C (days),"NCI-H23 NSCL [7]; 4 mg/kg/dose ip q1d×9, time to double in mass two times",18.4^b days
same,Tumor-free survivors,"NCI-H23 NSCL [7]; 4 mg/kg/dose ip q1d×9, tumor-free/total at end of experiment",0/5
same,in vivo activity (in words),NCI-H23 NSCL [7]; NCI-H23 xenograft,Good results
same,T-C (days),"LOX melanoma [8]; 3 mg/kg/dose ip q1d×9, time to double in mass four times",15.0^c days
same,Tumor-free survivors,LOX melanoma [8]; [9],0/6
same,in vivo activity (in words),LOX melanoma [8]; LOX xenograft,Good results
"C[C@]1(CO)O[C@@H](n2cnc3c(N)nc(N)nc32)[C@@H](F)[C@@H]1O [Compound 21, 2,6-Diamino-9-(2-deoxy-2-fluoro-4-C-methyl-β-D-arabinofuranosyl)purine]",IC50,CCRF-CEM leukemia,~500 nM
same,cytotoxicity with addition of deoxycoformycin,CCRF-CEM leukemia; deoxycoformycin (adenosine deaminase inhibitor) added,prevented
same,melting point,,270 °C (dec.)
Nc1ccn([C@@H]2O[C@H](CO)[C@@H](O)[C@@H]2O)c(=O)n1 [araC],intracellular concentration of triphosphate,"CCRF-CEM cells; 100 nM of compound, two hours, mean±SD, N=3",12±1 pmoles/10^6 cells
same,intracellular half-life of triphosphate,"CCRF-CEM cells; CCRF-CEM cells, N=2",5.6 h

# From patent US20120149657A1, “2'-FLUORO ARABINO NUCLEOSIDES AND USE THEREOF” (Southern Research Institute, priority 2009, published 2012)
